Source: US7432227B2, “6-alkyl or alkenyl-4-aminopicolinates and their use as herbicides” (Dow AgroSciences LLC, priority 2003, dated 2008)

What was measured:
[1] = system: Cocklebur (Xanthium strumarium); assay: Postemergence herbicidal activity, Cocklebur; assay type: in vivo; details: post-emergence, 336 h, visual score after 2 weeks, 0 = no injury, 100 = complete kill, read-out: Post-emergent % control XANST; for pest or weed control at 250 ppm: rate 250 ppm
Method: (§1) Seeds of the desired test plant species were planted in Grace-Sierra MetroMix® 306 planting mixture, which typically has a pH of 6.0 to 6.8 and an organic matter content of about 30 percent, in plastic pots with a surface area of 64 square centimeters. When required to ensure good germination and healthy plants, a fungicide treatment and/or other chemical or physical treatment was applied. The plants were grown for 7-21 days in a greenhouse with an approximate 15 hr photoperiod which was maintained at about 23-29° C. during the day and 22-28° C. during the night. Nutrients and water were added on a regular basis and supplemental lighting was provided with overhead metal halide 1000-Watt lamps as necessary. The plants were employed for testing when they reached the first or second true leaf stage. A weighed amount, determined by the highest rate to be tested, of each test compound was placed in a 20 mL glass vial and was dissolved in 4 mL of a 97:3 v/v (volume/volume) mixture of acetone and dimethyl sulfoxide (DMSO) to obtain concentrated stock solutions. […] The concentrated stock solutions obtained were diluted with an aqueous mixture containing acetone, water, isopropyl alcohol, DMSO, Atplus 411F crop oil concentrate, and Triton X-155 surfactant in a 48.5:39:10:1.5:1.0:0.02 v/v ratio to obtain spray solutions of known concentration. The solutions containing the highest concentration to be tested were prepared by diluting 2 mL aliquots of the stock solution with 13 mL of the mixture and lower concentrations were prepared by serial dilution of the stock solution. Approximately 1.5 mL aliquots of each solution of known concentration were sprayed evenly onto each of the test plant pots using a DeVilbiss atomizer driven by compressed air pressure of 2 to 4 psi (140 to 280 kilopascals) to obtain thorough coverage of each plant. Control plants were sprayed in the same manner with the aqueous mixture. In this test an application rate of 1 ppm results in the application of approximately 1 g/Ha. The treated plants and control plants were placed in a greenhouse as described above and watered by sub-irrigation to prevent wash-off of the test compounds. After 2 weeks the condition of the test plants as compared with that of the untreated plants was determined visually and scored on a scale of 0 to 100 percent where 0 corresponds to no injury and 100 corresponds to complete kill.

[2] = system: Lambsquarter (Chenopodium album); assay: Postemergence herbicidal activity, Lambsquarter; assay type: in vivo; details: post-emergence, 336 h, visual score after 2 weeks, 0 = no injury, 100 = complete kill, read-out: Post-emergent % control CHEAL; for pest or weed control at 250 ppm: rate 250 ppm
Method: as §1

[3] = system: Barnyardgrass (Echinochloa crus-galli); assay: Postemergence herbicidal activity, Barnyardgrass; assay type: in vivo; details: post-emergence, 336 h, visual score after 2 weeks, 0 = no injury, 100 = complete kill, read-out: Post-emergent % control ECHCG; for pest or weed control at 250 ppm: rate 250 ppm
Method: as §1

[4] = system: Giant Foxtail (Setaria faberi); assay: Postemergence herbicidal activity, Giant Foxtail; assay type: in vivo; details: post-emergence, 336 h, visual score after 2 weeks, 0 = no injury, 100 = complete kill, read-out: Post-emergent % control SETFA; for pest or weed control at 250 ppm: rate 250 ppm
Method: as §1

[5] = system: Lambsquarter (Chenopodium album); assay: Preemergence herbicidal activity, Lambsquarter; assay type: in vivo; details: pre-emergence, 504 h, visual score after 3 weeks, 100 = complete kill or no germination, read-out: Pre-emergent % control CHEAL; for pest or weed control at 560 ppm: rate 560 ppm; for pest or weed control at 280 ppm: rate 280 ppm; for pest or weed control at 140 ppm: rate 140 ppm
Description: (§2) Seeds of the desired test plant species were planted in a soil matrix prepared by mixing a loam soil (43 percent silt, 19 percent clay, and 38 percent sand, with a pH of about 8.1 and an organic matter content of about 1.5 percent) and sand in a 70 to 30 ratio. The soil matrix was contained in plastic pots with a surface area of 113 square centimeters. When required to ensure good germination and healthy plants, a fungicide treatment and/or other chemical or physical treatment was applied. A weighed amount, determined by the highest rate to be tested, of each test compound was placed in a 20 mL glass vial and was dissolved in 4 mL of a 97:3 v/v (volume/volume) mixture of acetone and dimethyl sulfoxide to obtain concentrated stock solutions. […] The stock solutions obtained were diluted with a 99.9:0.1 mixture of water and Tween® […] surfactant to obtain application solutions of known concentration. The solutions containing the highest concentration to be tested were prepared by diluting 2 mL aliquots of the stock solution with 15 mL of the mixture and lower concentrations were prepared by serial dilution of the stock solution. A 2.5 mL aliquot of each solution of known concentration was sprayed evenly onto the soil surface (113 sq. cm) of each seeded pot using a Cornwall 5.0 mL glass syringe fitted with a TeeJet TN-3 hollow cone nozzle to obtain thorough coverage of the soil in each pot. Control pots were sprayed in the same manner with the aqueous mixture. The treated pots and control pots were placed in a greenhouse maintained with an approximate 15 hr photoperiod and temperatures of about 23-29° C. during the day and 22-28° C. during the night. Nutrients and water were added on a regular basis and supplemental lighting was provided with overhead metal halide 1000-Watt lamps as necessary. The water was added by top-irrigation. After 3 weeks the condition of the test plants that germinated and grew as compared with that of the untreated plants that germinated and grew was determined visually and scored on a scale of 0 to 100 percent where 0 corresponds to no injury and 100 corresponds to complete kill or no germination.

[6] = system: Ivyleaf Morningglory (Ipomoea hederacea); assay: Preemergence herbicidal activity, Ivyleaf Morningglory; assay type: in vivo; details: pre-emergence, 504 h, visual score after 3 weeks, 100 = complete kill or no germination, read-out: Pre-emergent % control IPOHE; for pest or weed control at 560 ppm: rate 560 ppm; for pest or weed control at 280 ppm: rate 280 ppm; for pest or weed control at 140 ppm: rate 140 ppm
Description: as §2

[7] = system: Crabgrass(large) (Digitaria sanguinalis); assay: Preemergence herbicidal activity, Crabgrass(large); assay type: in vivo; details: pre-emergence, 504 h, visual score after 3 weeks, 100 = complete kill or no germination, read-out: Pre-emergent % control DIGSA; for pest or weed control at 560 ppm: rate 560 ppm; for pest or weed control at 280 ppm: rate 280 ppm; for pest or weed control at 140 ppm: rate 140 ppm
Description: as §2

[8] = system: Giant Foxtail (Setaria faberi); assay: Preemergence herbicidal activity, Giant Foxtail; assay type: in vivo; details: pre-emergence, 504 h, visual score after 3 weeks, 100 = complete kill or no germination, read-out: Pre-emergent % control SETFA; for pest or weed control at 560 ppm: rate 560 ppm; for pest or weed control at 280 ppm: rate 280 ppm; for pest or weed control at 140 ppm: rate 140 ppm
Description: as §2

Row | melting point | SMILES | pest or weed control at 250 ppm [1] | pest or weed control at 250 ppm [2] | pest or weed control at 250 ppm [3] | pest or weed control at 250 ppm [4] | pest or weed control at 560 ppm [5] | pest or weed control at 560 ppm [6] | pest or weed control at 560 ppm [7] | pest or weed control at 560 ppm [8] | pest or weed control at 140 ppm [5] | pest or weed control at 140 ppm [6] | pest or weed control at 140 ppm [7] | pest or weed control at 140 ppm [8] | further results
1 | – | C=Cc1cc(N)c(Cl)c(C(=O)OC)n1 [Compound 2, Methyl 4-amino-3-chloro-6-vinylpyridine-2-carboxylate] | 80% | 85% | 0% | 10% | 100% | 60% | 0% | 0% | – | – | – | – | –
2 | 68 to 71 °C | C=Cc1nc(C(=O)OC)c(Cl)c(N)c1F [Compound 1, Methyl 4-amino-3-chloro-5-fluoro-6-vinylpyridine-2-carboxylate] | 100% | 100% | 60% | 50% | – | – | – | – | – | – | – | – | pest or weed control at 280 ppm [5]: 100%; pest or weed control at 280 ppm [6]: 100%; pest or weed control at 280 ppm [7]: 95%; pest or weed control at 280 ppm [8]: 90%
3 | – | Cc1nc(C(=O)O)c(Cl)c(N)c1F [Compound 7, 4-Amino-3-chloro-6-methyl-5-fluoropyridine-2-carboxylic acid] | – | – | – | – | – | – | – | – | – | – | – | – | pest or weed control at 288 ppm ([1]; rate 288 ppm): 100%; pest or weed control at 288 ppm ([2]; rate 288 ppm): 98%; pest or weed control at 288 ppm ([3]; rate 288 ppm): 80%; pest or weed control at 288 ppm ([4]; rate 288 ppm): 85%; pest or weed control at 295 ppm ([5]; rate 295 ppm): 98%; pest or weed control at 295 ppm ([6]; rate 295 ppm): 98%; pest or weed control at 295 ppm ([7]; rate 295 ppm): 85%; pest or weed control at 295 ppm ([8]; rate 295 ppm): 85%
4 | 109 to 110 °C | CCc1nc(C(=O)OC)c(Cl)c(N)c1F [Compound 3, Methyl 4-amino-3-chloro-6-ethyl-5-fluoropyridine-2-carboxylate] | 100% | 100% | 85% | 80% | – | – | – | – | 100% | 100% | 100% | 100% | –
5 | – | C=CCc1cc(N)c(Cl)c(C(=O)O)n1 [Compound 11, 6-Allyl-4-amino-3-chloropyridine-2-carboxylic acid] | 85% | 70% | 0% | 0% | 40% | 80% | 0% | 0% | – | – | – | – | –
6 | 144 to 145 °C | CCc1nc(C(=O)O)c(Cl)c(N)c1F [Compound 5, 4-Amino-3-chloro-6-ethyl-5-fluoropyridine-2-carboxylic acid] | 100% | 100% | 85% | 70% | – | – | – | – | 100% | 100% | 90% | 90% | –
7 | – | CSCc1cc(N)c(Cl)c(C(=O)O)n1 [Compound 10, 4-Amino-3-chloro-6-[(methylthio)methyl]pyridine-2-carboxylic acid] | 85% | 70% | 0% | 20% | 0% | 0% | 0% | 0% | – | – | – | – | –
8 | 113 to 114 °C | COC(=O)c1nc(C)c(F)c(N)c1Cl [Compound 12, Methyl 4-amino-3-chloro-5-fluoro-6-methylpyridine-2-carboxylate] | 100% | 100% | 80% | 95% | – | – | – | – | 100% | 100% | 100% | 98% | –
9 | – | Cc1cc(N)c(Cl)c(C(=O)O)n1 [Compound 8, 4-Amino-3-chloro-6-methylpyridine-2-carboxylic acid] | 70% | 40% | 0% | 0% | – | – | – | – | – | – | – | – | pest or weed control at 280 ppm [5]: 100%; pest or weed control at 280 ppm [6]: 85%; pest or weed control at 280 ppm [7]: 20%; pest or weed control at 280 ppm [8]: 10%
